The record followed here is patent US20220402917A1, “COMPOUND AS SMALL MOLECULE INHIBITOR PD-1/PD-L1 AND APPLICATION THEREOF” (MEDSHINE DISCOVERY INC., priority 2019, published 2022).

The test addresses PD1/PD-L1 (Homo sapiens, UniProt Q9NZQ7). The experiment in a line: NFAT activity test (TCR Activitor/PD-L1 CHO cells with PD-1/NFAT Reporter-Jurkat cells). The format is cell-based. The arrangement: host or cells: TCR Activitor/PD-L1 CHO cells; PD-1/NFAT Reporter-Jurkat cells. The settings on record: TCR Activitor/PD-L1 CHO cells + PD-1/NFAT Reporter-Jurkat cells, 5 hours, luciferase; for IC50: read-out: IC50, inhibitory activity on PD1/PD-L1 binding (NFAT activity test). The source says: Experimental Example 3: NFAT Activity Test
The engineered T cell expresses PD-1 molecules and T cell receptor (TCR) on the surface, which can activate the NFAT signaling pathway of T cells after co-culturing with engineered antigen presenting cells (APCs). Expression of PD-L1 molecules on APCs can effectively attenuate the NFAT signaling pathway in T cells. PD-L1 inhibitors can be used effectively block the PD-1/PD-L1 regulatory mechanism, thereby reversing the weakened NFAT signaling pathway. After being pretreated with APC, the small molecule is co-cultured with T cells, then the expression of luciferase was detected to indirectly reflect the activation of the NFAT pathway in T cells.
The PD1/PD-L1 NFAT detection kit was purchased from BPS Biosciences. Birght-Glo reagent was purchased from Promega. Nivo multi-label analyzer (PerkinElmer).
The TCR Activitor/PD-L1 CHO cells with a growth confluence of 80% were plated into the plate at 35,000 cells per well and placed in a 37° C. cell culture incubator overnight; the compounds to be tested were diluted 5-fold to the 8th concentration, from 20 μM to 0.25 nM, and the DMSO concentration was 2%, a double-well experiment was set up. The TCR Activitor/PD-L1 CHO cell supernatant was discarded, 50 μl of compound working solution was added to each well, incubated at 37° C. for 30 minutes; after the incubation was completed, 50 μL of PD-1/NFAT Reporter-Jurkat cell suspension with a concentration of 4*10^5 cells/mL was added to each well, incubated at 37° C. for 5 hours. After the incubation was completed, 100 μL Bright-Glo was added to each well, and after mixing, the chemiluminescence signal was detected by a Nivo multi-label analyzer.
Using the equation (sample−Min)/(Max−Min)×100% to convert the raw data into inhibition rate, and the IC50 value can be obtained by curve fitting with four parameters (obtained from log(inhibitor) vs. response—Variable slope mode in GraphPad Prism). Table 3 provides the inhibitory activity of the compounds of the examples of the present disclosure on PD1/PD-L1 binding.

Sequence of PD1/PD-L1 (Q9NZQ7 19-290): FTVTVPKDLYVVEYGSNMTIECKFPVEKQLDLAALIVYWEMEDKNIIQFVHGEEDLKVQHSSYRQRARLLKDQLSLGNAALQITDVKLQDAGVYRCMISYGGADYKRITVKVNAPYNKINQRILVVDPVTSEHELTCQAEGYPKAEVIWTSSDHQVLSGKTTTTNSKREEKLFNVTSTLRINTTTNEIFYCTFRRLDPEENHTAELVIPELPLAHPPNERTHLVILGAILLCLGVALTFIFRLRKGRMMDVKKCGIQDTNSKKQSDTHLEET

Turning to `COc1nc(-c2cccc(-c3cccc(NC(=O)c4cc(C)c5c(n4)CN(CC(C)(C)O)CC5)c3Cl)c2Cl)cnc1CN1CC(O)C1` [Compound 28], the “Maximum effect (induction fold)” value was 3.63 induction fold and the IC50 came to 34.8 nM.
The matching figures for `COc1nc(-c2cccc(-c3cccc(NC(=O)c4cc(C)c5c(n4)CN(CC4(CO)CC4)CC5)c3Cl)c2Cl)cnc1CN1CC(O)C1` [Compound 29]: 3.52 induction fold and 52 nM.
The matching figures for `COc1nc(-c2cccc(-c3cccc(NC(=O)c4cc(C)c5c(n4)CCN(CCO)C5)c3Cl)c2Cl)cnc1CN1CC(O)C1` [Compound 43]: 5.16 induction fold and 242 nM.
Consider `COc1nc(-c2cccc(-c3cccc(NC(=O)c4cc(C)c5c(n4)CN(CC(C)O)CC5)c3Cl)c2Cl)cnc1CN1CC(O)C1` (centres unmarked) [Compound 44], for which the “Maximum effect (induction fold)” value came out at 5.15 induction fold and the IC50 is 207 nM.
The matching figures for `COc1nc(-c2cccc(-c3cccc(NC(=O)c4cc(OCC#N)c5c(n4)CN(CCO)CC5)c3Cl)c2Cl)cnc1CN1CC(O)C1` [Compound 52]: 4.74 induction fold and 51.5 nM.
The matching figures for `COc1cc(C(=O)Nc2cccc(-c3cccc(-c4cnc(CN5CC6(CC(O)C6)C5)c(OC)n4)c3Cl)c2Cl)nc2c1CCN(CCO)C2` [Compound 53]: 3.81 induction fold and 13.7 nM.
For the molecule `COc1cc(C(=O)Nc2cccc(-c3cccc(-c4cnc(CNCCO)c(OC)n4)c3Cl)c2Cl)nc2c1CCN(CCO)C2` [Compound 54], the “Maximum effect (induction fold)” value was found to be 3.91 induction fold and the IC50 turned out to be 38.5 nM.
The matching figures for `COc1cc(C(=O)Nc2cccc(-c3cccc(-c4cnc(CN5CC(CO)C5)c(OC)n4)c3Cl)c2Cl)nc2c1CCN(CCO)C2` [Compound 55]: 4.56 induction fold and 25.2 nM.
The matching figures for `COc1cc(C(=O)Nc2cccc(-c3cccc(-c4cnc(CN5CCC(CO)C5)c(OC)n4)c3Cl)c2Cl)nc2c1CCN(CCO)C2` (centres unmarked) [Compound 56]: 2.75 induction fold and 10.1 nM.
The matching figures for `COc1nc(-c2cccc(-c3cccc(NC(=O)c4cc(C#N)c5c(n4)CN(CCO)CC5)c3Cl)c2Cl)cnc1CN1CC2(CC(O)C2)C1` [Compound 57]: 4.42 induction fold and 40.7 nM.
For the molecule `COc1nc(-c2cccc(-c3cccc(NC(=O)c4cc(C#N)c5c(n4)CN(CCO)CC5)c3Cl)c2Cl)cnc1CN1CC(C)(O)C1` [Compound 58], the “Maximum effect (induction fold)” value amounted to 5.01 induction fold and the IC50 amounted to 104 nM.
The matching figures for `COc1nc(-c2cccc(-c3cccc(NC(=O)c4cc(C#N)c5c(n4)CN(CCO)CC5)c3Cl)c2Cl)cnc1CNCCO` [Compound 59]: 5.35 induction fold and 166 nM.
The matching figures for `COc1nc(-c2cccc(-c3cccc(NC(=O)c4cc(C#N)c5c(n4)CN(CCO)CC5)c3Cl)c2Cl)cnc1CN1CC(CO)C1` [Compound 60]: 4.95 induction fold and 55.5 nM.
`COc1nc(-c2cccc(-c3cccc(NC(=O)c4cc(C#N)c5c(n4)CN(CCO)CC5)c3Cl)c2Cl)cnc1CN1CCC(CO)C1` (centres unmarked) [Compound 61]: the “Maximum effect (induction fold)” value is 4.99 induction fold and the IC50 came out at 53.8 nM.
The matching figures for `COc1nc(-c2cccc(-c3cccc(NC(=O)c4cc(OC(F)F)c5c(n4)CN(CCO)CC5)c3Cl)c2Cl)cnc1CN1CC2(CC(O)C2)C1` [Compound 62]: 4.37 induction fold and 13.5 nM.
The matching figures for `COc1nc(-c2cccc(-c3cccc(NC(=O)c4cc(OC(F)F)c5c(n4)CN(CCO)CC5)c3Cl)c2Cl)cnc1CN1CC(C)(O)C1` [Compound 63]: 6.40 induction fold and 142 nM.
